In one series the test system is A. fumigatus (H1120). Briefly: MIC, micro-broth dilution. The conditions noted are these: Aspergillus fumigatus, 35° C., 24 hours, read-out: ANTIMICROBIAL ACTIVITY (MIC). The series is classed as cell-based. How it is done: (§1) The antimicrobial activity of the compounds according to the present invention were compared with the results obtained for squalamine as reported in Proc. Nat. Acad. Sci. USA 90:1354 (1993), supra, the disclosure of which is incorporated in toto herein. The data reported in the following table is the minimum inhibitory concentration (MIC) required for complete inhibition of microbial growth. The MIC was determined utilizing known micro-broth dilution methods in which inocula of 10^6 /ml of the test organism were incubated in 0.5× trypticase soy broth at 35° C. for 24 hours. MIC's were also tested under various pH conditions, with calcium chloride or magnesium chloride, or with immobilized horse serum.
(§2) The numbers in parentheses contained in the table correspond to accession numbers with the American Type Culture Collection (reference strains were either obtained from the American Type Culture Collection or from the Microbiology Laboratory at Memorial Sloan-Kettering Cancer Center; Bacterial strains were maintained on Columbia 5% sheep blood agar plates, and fungi were maintained on Sabouraud Dextrose agar plates).
On the technique in general: In broth dilution the organism is exposed to a series of concentrations in liquid medium.

The subject of another series is A. fumigatus (H29709). Briefly: MIC, micro-broth dilution. The series is classed as cell-based. To be noted: Aspergillus fumigatus, 35° C., 24 hours, read-out: ANTIMICROBIAL ACTIVITY (MIC). How it is done:
as §1, §2

The test system of a further series is C. albicans (90028). In words: MIC, micro-broth dilution. The series is classed as cell-based. To be noted: Candida albicans, 35° C., 24 hours, read-out: ANTIMICROBIAL ACTIVITY (MIC). How it is done: as §1, §2
A further series relates to C. neoformans (90012). In words: MIC, micro-broth dilution. The conditions noted are these: Cryptococcus neoformans, 24 h, read-out: ANTIMICROBIAL ACTIVITY (MIC). The series is classed as cell-based. How it is done:
as §1, §2

For the next series, the system named is C. neoformans (M68979). Briefly: MIC, micro-broth dilution. Format: cell-based. The conditions noted are these: Cryptococcus neoformans, 24 h, read-out: ANTIMICROBIAL ACTIVITY (MIC). On the procedure: as §1, §2
Another series deals with E. cloacae (13047). In words: MIC, micro-broth dilution. Format: cell-based. The conditions noted are these: Enterobacter cloacae, 35° C., 24 hours, read-out: ANTIMICROBIAL ACTIVITY (MIC). On the procedure:
as §1, §2

The next series relates to E. coli (25922). Briefly: MIC, micro-broth dilution. Format: cell-based. To be noted: Escherichia coli, 35° C., 24 hours, read-out: ANTIMICROBIAL ACTIVITY (MIC). On the procedure: as §1, §2
A further series deals with E. faecalis (29212). In words: MIC, micro-broth dilution. The series is classed as cell-based. The conditions noted are these: Enterococcus faecalis, 35° C., 24 hours, read-out: ANTIMICROBIAL ACTIVITY (MIC). How it is done: as §1, §2
The next series has as its system E. faecium (T6480-9). Briefly: MIC, micro-broth dilution. To be noted: Enterococcus faecium, 35° C., 24 hours, read-out: ANTIMICROBIAL ACTIVITY (MIC). Format: cell-based. On the procedure:
as §1, §2

For another series, the system named is K. pneumoniae (13883). Briefly: MIC, micro-broth dilution. Format: cell-based. To be noted: Klebsiella pneumoniae, 24 h, read-out: ANTIMICROBIAL ACTIVITY (MIC). On the procedure:
as §1, §2

The subject of another series is P. aeruginosa (10145). Briefly: MIC, micro-broth dilution. The series is classed as cell-based. To be noted: Pseudomonas aeruginosa, 35° C., 24 hours, read-out: ANTIMICROBIAL ACTIVITY (MIC). How it is done: as §1, §2
The next series relates to P. aeruginosa (2853). In words: MIC, micro-broth dilution. To be noted: Pseudomonas aeruginosa, 24 h, read-out: ANTIMICROBIAL ACTIVITY (MIC). The series is classed as cell-based. On the procedure: as §1, §2
The test system of another series is P. vulgaris (13315). In words: MIC, micro-broth dilution. Format: cell-based. To be noted: Proteus vulgaris, 35° C., 24 hours, read-out: ANTIMICROBIAL ACTIVITY (MIC). How it is done:
as §1, §2

The test system of a further series is S. agalactiae (13813). Briefly: MIC, micro-broth dilution. Format: cell-based. To be noted: Streptococcus agalactiae, 35° C., 24 hours, read-out: ANTIMICROBIAL ACTIVITY (MIC). How it is done: as §1, §2
The subject of the next series is S. aureus (25923). Briefly: MIC, micro-broth dilution. The conditions noted are these: Staphylococcus aureus, 35° C., 24 hours, read-out: ANTIMICROBIAL ACTIVITY (MIC). Format: cell-based. How it is done:
as §1, §2

A further series has as its system S. aureus (29213). In words: MIC, micro-broth dilution. To be noted: Staphylococcus aureus, 24 h, read-out: ANTIMICROBIAL ACTIVITY (MIC). Format: cell-based. How it is done:
as §1, §2

A further series concerns S. aureus (H20809). In words: MIC, micro-broth dilution. The series is classed as cell-based. To be noted: Staphylococcus aureus, 24 h, read-out: ANTIMICROBIAL ACTIVITY (MIC). On the procedure:
as §1, §2

The subject of a further series is S. epidermidis (12228). In words: MIC, micro-broth dilution. The series is classed as cell-based. The conditions noted are these: Staphylococcus epidermidis, 35° C., 24 hours, read-out: ANTIMICROBIAL ACTIVITY (MIC). On the procedure: as §1, §2
In the next series the test system is S. marcescens (13880). In words: MIC, micro-broth dilution. The series is classed as cell-based. The conditions noted are these: for MIC: Serratia marcescens, 24 h, read-out: ANTIMICROBIAL ACTIVITY (MIC). How it is done: as §1, §2
The next series concerns S. pneumoniae (6305). Briefly: MIC, micro-broth dilution. Format: cell-based. The conditions noted are these: Streptococcus pneumoniae, 35° C., 24 hours, read-out: ANTIMICROBIAL ACTIVITY (MIC). How it is done:
as §1, §2

The next series deals with S. pyrogenes (19615). Briefly: MIC, micro-broth dilution. Format: cell-based. The conditions noted are these: 24 h, read-out: ANTIMICROBIAL ACTIVITY (MIC). On the procedure: as §1, §2
Series [1] in a line: Hemolytic activity, minimal hemolytic concentration (MHC).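 Also: MCC here is the minimal hemolytic concentration (MHC).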 Format: cell-based, sheep. To be noted: sheep, red blood cells. On the procedure: Hemolytic activity of the squalamine mimics according to the present invention were also studied by incubating sheep red blood cells for 24 hours at 37° C. in saline (final concentration of 0.5%) with or without respective concentrations of the squalamine mimics. The minimal hemolytic concentration (MHC) was determined as the lowest concentration of a mimic that raised visible hemolysis.

The values below come from US5834453A, “Methods for the manufacture and use of antimicrobial sterol conjugates” (Lehigh University, priority 1997, dated 1998).

Converted amounts (≈) assume the structure as drawn. “Also recorded” adds a separate entry of the source.

The MIC is the least concentration at which growth counts as inhibited.

For the compound `C[C@H](CCCNCCCCN)[C@H]1CC[C@H]2[C@@H]3CC[C@@H]4C[C@H](O)CC[C@]4(C)[C@H]3C[C@H](O)[C@]12C` [SM-9H], the minimum inhibitory concentration (MIC) with A. fumigatus (H1120) was 12.5 µg/mL (≈ 27.9 µM); with A. fumigatus (H29709) it was 6.25 µg/mL (≈ 13.9 µM); with C. albicans (90028), 3.13 µg/mL (≈ 6.98 µM); in the series on C. neoformans (90012), 0.78 µg/mL (≈ 1.74 µM); with C. neoformans (M68979), 0.78 µg/mL (≈ 1.74 µM); in the series with E. cloacae (13047), 100 µg/mL (≈ 223 µM). Further, the MIC with E. coli (25922) was found to be 25 µg/mL (≈ 55.7 µM); in the series on E. faecalis (29212) it was 6.25 µg/mL (≈ 13.9 µM); with E. faecium (T6480-9), 25 µg/mL (≈ 55.7 µM); in the series with K. pneumoniae (13883) it was 50 µg/mL (≈ 111 µM); in the series on P. aeruginosa (10145), 12.5 µg/mL (≈ 27.9 µM); with P. aeruginosa (2853) it was 6.25 µg/mL (≈ 13.9 µM). The MIC with P. vulgaris (13315) was determined as 12.5 µg/mL (≈ 27.9 µM); in the series on S. agalactiae (13813), 3.13 µg/mL (≈ 6.98 µM); with S. aureus (25923), 1.56 µg/mL (≈ 3.48 µM); in the series with S. aureus (29213) it was 1.56 µg/mL (≈ 3.48 µM); with S. aureus (H20809), 3.13 µg/mL (≈ 6.98 µM); in the series on S. epidermidis (12228) it was 1.56 µg/mL (≈ 3.48 µM). The figures for the minimal inhibitory concentration (MIC) with S. marcescens (13880), with S. pneumoniae (6305) and with S. pyrogenes (19615) were over 100 µg/mL, 6.25 µg/mL (≈ 13.9 µM) and 0.78 µg/mL (≈ 1.74 µM), respectively. Also, the MCC at 24 h in series [1] stood at 50 µg/mL.

For the compound `C[C@H](CCC(=O)NCCCCN)[C@H]1CC[C@H]2[C@@H]3CC[C@@H]4C[C@H](O)CC[C@]4(C)[C@H]3C[C@H](O)[C@]12C` [SM-9], the minimum inhibitory concentration (MIC) in the series on A. fumigatus (H1120) worked out at 50 µg/mL (≈ 108 µM); in the series with A. fumigatus (H29709), 50 µg/mL (≈ 108 µM); in the series on C. albicans (90028), 25 µg/mL (≈ 54 µM); with C. neoformans (90012), 25 µg/mL (≈ 54 µM); in the series on C. neoformans (M68979) it was 25 µg/mL (≈ 54 µM); with E. cloacae (13047), 50 µg/mL (≈ 108 µM). For the same compound, the MIC was determined as 50 µg/mL (≈ 108 µM) with E. coli (25922); 25 µg/mL (≈ 54 µM) in the series on E. faecalis (29212); 50 µg/mL (≈ 108 µM) in the series on E. faecium (T6480-9); 50 µg/mL (≈ 108 µM) with K. pneumoniae (13883); 100 µg/mL (≈ 216 µM) in the series with P. aeruginosa (10145); 100 µg/mL (≈ 216 µM) in the series on P. aeruginosa (2853). In addition, the minimal inhibitory concentration (MIC) in the series with P. vulgaris (13315) was determined as 50 µg/mL (≈ 108 µM); in the series with S. agalactiae (13813), 12.5 µg/mL (≈ 27 µM); in the series with S. aureus (25923), 25 µg/mL (≈ 54 µM); in the series on S. aureus (29213) it was 25 µg/mL (≈ 54 µM); with S. aureus (H20809), 25 µg/mL (≈ 54 µM); with S. epidermidis (12228) it was 25 µg/mL (≈ 54 µM). Further, the MIC was over 100 µg/mL in the series on S. marcescens (13880), 25 µg/mL (≈ 54 µM) in the series on S. pneumoniae (6305) and 6.25 µg/mL (≈ 13.5 µM) in the series with S. pyrogenes (19615). The compound also yielded an MCC at 24 h in series [1] of 50 µg/mL.

With `C[C@H](CCC(=O)NCCNCCNCCN)[C@H]1CC[C@H]2[C@@H]3CC[C@@H]4C[C@H](O)CC[C@]4(C)[C@H]3C[C@H](O)[C@]12C` [SM-11], the MIC worked out at 12.5 µg/mL (≈ 24 µM) in the series on A. fumigatus (H1120); 12.5 µg/mL (≈ 24 µM) in the series on A. fumigatus (H29709); 12.5 µg/mL (≈ 24 µM) in the series with C. albicans (90028); 6.25 µg/mL (≈ 12 µM) in the series on C. neoformans (90012); 6.25 µg/mL (≈ 12 µM) in the series with C. neoformans (M68979); 12.5 µg/mL (≈ 24 µM) in the series with E. cloacae (13047). Moreover, the MIC in the series with E. coli (25922) came to 12.5 µg/mL (≈ 24 µM); in the series on E. faecalis (29212), 12.5 µg/mL (≈ 24 µM); in the series with E. faecium (T6480-9), 12.5 µg/mL (≈ 24 µM); in the series with K. pneumoniae (13883), 12.5 µg/mL (≈ 24 µM); in the series on P. aeruginosa (10145), 6.25 µg/mL (≈ 12 µM); in the series with P. aeruginosa (2853), 6.25 µg/mL (≈ 12 µM). Besides, the minimum inhibitory concentration (MIC) amounted to 25 µg/mL (≈ 48 µM) in the series with P. vulgaris (13315); 6.25 µg/mL (≈ 12 µM) in the series on S. agalactiae (13813); 6.25 µg/mL (≈ 12 µM) with S. aureus (25923); 12.5 µg/mL (≈ 24 µM) in the series on S. aureus (29213); 12.5 µg/mL (≈ 24 µM) in the series with S. aureus (H20809); 6.25 µg/mL (≈ 12 µM) in the series with S. epidermidis (12228). The minimum inhibitory concentration (MIC) was 50 µg/mL (≈ 96 µM) with S. marcescens (13880), 12.5 µg/mL (≈ 24 µM) in the series on S. pneumoniae (6305) and 6.25 µg/mL (≈ 12 µM) with S. pyrogenes (19615). In addition, the “activity against S. marcescens” value with S. marcescens (13880) (in words) is “found even against S. marcescens; also recorded: effective against S. marcescens”. This compound returned an MCC at 24 h in series [1] of 25 µg/mL.
